One assay concerns PD-1 promoter. The assay can be described thus: PD-1 promoter luciferase reporter in HEK293T cells. It is filed as cell-based. Conditions: Kyn 48 h. How it is done: (6) HEK293T cells were transiently co-transfected with the luciferase reporter PGL3 coupled to the PD-1 promoter together with an AhR or an empty plasmid for 24 h and then treated with Kyn for another 48 h.
On the technique in general: In a reporter assay the amount or activity of a reporter protein is the signal.

A further assay relates to CD8^+ T cells. Description: Kyn i.p. injection in WT or AhR-/- C57BL/6 mice, analysis of CD8+ T cells. It is filed as in vivo, mouse. How it is done: (1) WT C57BL/6 mice were i.p. injected with PBS or Kyn (50 μg, once per day) for 5 days, and CD8^+ T cells were sorted by FACS from the spleen and mesenteric lymph nodes. PD-1 expression was determined by flow cytometry (FIG. 6A). Some CD8^+ T cells from spleen were immunostained with AhR and DAPI (FIG. 6B), and the mRNA expression of PAT4 and SLC7A8 was determined by real-time PCR (FIG. 6C). […] Bar, […]. (2) The experimental steps were the same as those of step (1), except that AhR^−/− mice were used. (3) PD-1 expression in resting or anti-CD3/CD28 bead-activated splenic CD8^+ T cells was determined, wherein said cells were isolated from AhR^−/− C57BL/6 mice injected with PBS or Kyn for 5 days.

Assay [1] has as its system PD-1. The assay can be described thus: OVA-B16 melanoma-bearing mice with adoptively transferred CFSE-labeled OT-1 T cells, PD-1 expression. Conditions: Kyn 50 μg/mouse i.p. once every two days, three times; Day 7. Type of assay: in vivo, mouse. The protocol: (6) C57BL/6 mice with 5×5 mm OVA-B16 melanoma were adoptively transferred with CFSE-labeled OT-1 CD8^+ T cells (4×10^6 cells/mouse, once every three days) on three occasions. At the same time, some mice were i.p. injected with Kyn (50 μg/mouse, once every two days) for three times. On Day 7 after transferring, CFSE^+CD8^+ T cells were isolated from tumor for flow cytometric analysis of PD-1 expression.
(8) The experimental steps were the same as those of step (7), except that C57BL/6 mice were treated with Kyn, DMF (5 μg/mouse, o.t., twice every day) or Kyn+DMF for 6 days. CFSE^+CD8^+ T cells from tumor were isolated for flow cytometric analysis of PD-1 expression.

Assay [2] relates to PD-1. The assay can be described thus: ID8 ovarian cancer and H22 hepatocarcinoma ascites peritoneal tumor models. Conditions: Kyn i.p., 6 days. It is filed as in vivo, mouse. How it is done:
(10) C57BL/6 mice were intraperitoneally injected with 1×10^6 ID8 ovarian cancer cells. After 10 days, mice were intraperitoneally administered with PBS, Kyn, DMF or Kyn+DMF for 6 days. CD8^+ T cells from ascites were isolated and PD-1 expression was determined by flow cytometry (n=5).

For assay [3], the system named is PAT4 and SLC7A8. Description: PAT4 and SLC7A8 expression in CD8+ T cells from breast cancer patients (real-time PCR). Type of assay: cell-based, human. Conditions: human CD8+ T cells, Kyn, 48 h. How it is done:
(8) CD8^+ T cells from breast cancer patients were treated with PBS, Kyn ([…] (20 μM) or Kyn/CH (50 μM) for 48 h. The expression of PAT4 and SLC7A8 was determined by real-time PCR. The determination results were as shown in FIG. 7I.
(In general: Quantitative PCR measures a nucleic acid by following its amplification.)

Assay [4] relates to PAT4 and SLC7A8. The assay can be described thus: Effect of Kyn on the expression of PAT4 and SLC7A8 in OT-1 CD8+ T cells (fluorescence quantitative PCR). It is filed as cell-based. Conditions: activated mouse CD8+ T cells, 200 μM Kyn, 48 h. The protocol:
Splenic CD8^+ T cells of OT-1 mice were obtained by magnetic bead sorting, and seeded into a 24-well plate (1 million cells/well) while anti-CD3/CD28 magnetic beads were added to activate T cells. The culture medium was RPMI-1640 added with 10 ng/mL mouse IL-2 and […] β-mercaptoethanol. Cells were grouped and treated with drugs as follows. Control group 1 (PBS): culture medium+PBS; Experimental group 2 (Kyn): culture medium+200 μM Kyn; RNA was collected from cells in each group after 48 h, and the expression of PAT4 and SLC7A8 was determined by fluorescence quantitative PCR.

Assay [5] relates to PD-1. The assay can be described thus: Effect of SAR and BCH on PD-1 expression in mouse CD8+ T cells (flow cytometry). It is filed as cell-based. Conditions: 200 μM Kyn, 48 h. How it is done: Mouse splenic CD8^+ T cells were obtained by magnetic bead sorting, and seeded into a U-shaped bottom 96-well plate (100000 cells/well) while anti-CD3/CD28 magnetic beads were added to activate T cells. The culture medium was RPMI-1640 added with 10 ng/mL mouse IL-2 and […] β-mercaptoethanol. Cells were grouped and treated with drugs as follows.
Control group 1 (PBS): culture medium+PBS;
Experimental group 2 (Kyn): culture medium+200 μM Kyn;
Experimental group 3 (Kyn+SAR): culture medium+200 μM Kyn+10 mM SAR;
Experimental group 4 (Kyn+BCH): culture medium+200 μM Kyn+100 μM BCH;
The expression level of PD-1 in CD8^+ T cells of each group was determined by flow cytometry after 48 h.
On the technique in general: In flow cytometry, cells or beads pass a laser one at a time.

Assay [6] relates to PAT4 and SLC7A8. Description: Effect of Kyn on the expression of PAT4 and SLC7A8 in human peripheral blood CD8+ T cells (fluorescence quantitative PCR). It is filed as cell-based. Conditions: activated peripheral blood CD8+ T cells of breast cancer patients, 200 μM Kyn, 48 h. How it is done:
Mononuclear cells were isolated and obtained from the peripheral whole blood of breast cancer patients by using Ficoll. CD8^+ T cells were sorted by magnetic beads, and seeded into a U-shaped bottom 96-well plate (100000 cells/well) while anti-CD3/CD28 magnetic beads were added to activate T cells. The culture medium was RPMI-1640 added with 10 ng/mL human IL-2. Cells were grouped and treated with drugs as follows. Control group 1 (PBS): culture medium+PBS; Experimental group 2 (Kyn): culture medium+200 μM Kyn; RNA was collected from cells in each group after 48 h, and the expression of PAT4 and SLC7A8 was determined by fluorescence quantitative PCR.

`Nc1ccccc1C(=O)CC(N)C(=O)O` (stereo not shown) [Kyn, kynurenine]: the “increase of the luciferase activity” value in the assay on PD-1 promoter (HEK293T overexpressing AhR) is on record as 12 fold; in the assay with PD-1 promoter (HEK293T with intrinsic AhR expression (empty control plasmid)) it was 4 fold. Also, the PD-1 expression result in the assay on CD8^+ T cells (AhR-/- mice, Kyn for 5 days) is “failed to induce”. Also, in the assay with CD8^+ T cells (WT C57BL/6 mice, Kyn 50 μg i.p. once per day, 5 days), the “PD-1 expression in CD8+ T cells of spleen and lymph nodes” value was “upregulated PD-1 expression”. The “expression of Kyn transporters SLC7A8 and PAT4” value with CD8^+ T cells (WT C57BL/6 mice, Kyn 50 μg i.p., 5 days) is recorded as “upregulated”. The “AhR localisation in CD8+ T cells” value with CD8^+ T cells (WT C57BL/6 mice, Kyn 50 μg i.p., 5 days, spleen) is on record as “translocated to the nucleus”. The “PD-1 expression in tumor-infiltrating CFSE+ T cells” value in the assay with PD-1 [1] is listed as “much higher levels of PD-1 expression”. Moreover, the “PD-1 expression in peritoneal, splenic or lymph node CD8+ T cells” value in the assay on PD-1 [2] is on record as “promoted”. For the same molecule, the “expression of IFN-γ and TNF-α” value in the assay with PD-1 [2] is “inhibited”. The “expression of SLC7A8 and PAT4” value with PAT4 and SLC7A8 [3] is reported as “upregulated”. Also, the “expression of PAT4 and SLC7A8” value is reported as “significantly upregulating” in the assay on PAT4 and SLC7A8 [4]; “significantly upregulating” with PAT4 and SLC7A8 [6]. Besides, in the assay with PD-1 [5], the “expression of PD-1 in CD8+ T cells” value is “significant increased”.

The values above are taken from US20210154162A1, “DRUG AND PHARMACEUTICAL COMPOSITION CONTAINING TRANSPORT PROTEIN INHIBITOR, AND USE” (Institute of Basic Medical Sciences Chinese Academy of …, priority 2018, published 2021).
